{"source": "patent US20200199174A1", "about": "“NOVEL FLUORESCENT LABELING METHOD” (priority 2017, published 2020)", "key": {"[1]": {"test_system": "HeLa cells expressing ECFP-5D4", "assay": "Long-term-stable fluorescence imaging based on tag/probe binding/dissociation equilibrium", "conditions": "10 nM probe in extracellular fluid, whole cell irradiated with intense excitation light", "protocol": "HeLa cells expressing ECFP-5D4 were immersed for one hour at room temperature in HBS including 10 nM 6SiR-pCOONHMeoNP, and fluorescence imaging thereof was performed without modification of this state with the probe present at a concentration of 10 nM in the extracellular fluid. […] In super-resolution imaging and other fluorescence observation in which photobleaching has hitherto been a serious problem, the tag/probe method developed herein has the revolutionary characteristic of making it possible to obtain a semi-permanent fluorescence signal without limitation by photobleaching."}, "5D4": {"test_system": "5D4", "assay": "Fluorescence change characteristics of fluorophore-DNP pair in presence and absence of 5D4", "format": "biochemical, mouse", "protocol": "The anti-DNP scFv was expressed and purified as a fusion protein of maltose-binding protein. Escherichia coli BL21 (DE3) was transformed with the pMalc5E vector (pMalc5E-scFv) into which the purification object scFv sequence was introduced, and was cultured overnight on an LB medium plate including 100 μg/mL of ampicillin. A single colony was picked up and cultured overnight in 5 mL of a liquid LB medium including 100 μg/mL of ampicillin, and 1 mL of the resultant culture liquid was transferred to 100 mL of LB medium including 100 μg/mL of ampicillin. Shake culturing was performed at 200 rpm and a temperature of 37° C. until an optical density at 600 nm of 0.8 was reached, and after shake culturing was performed for 30 minutes at 15° C., IPTG was added to give a final concentration of 0.5 mM, and shake culturing was continued overnight. The E. coli were recovered after culturing and were disrupted using a sonicator. […] An eluate was replaced with PBS, and yield was quantified by the Bradford method, after which the eluate was subjected to the measurements described below.\nRNA was extracted from the hybridomas of the resultant four clones, and cDNA fragments of the variable regions of the light chains and heavy chains of monoclonal antibodies were obtained by reverse transcription. The cDNA fragments of the variable regions of the light chains and heavy chains were connected via a linker sequence by overlap PCR, and scFv constructs were constructed only from subclones (4E10 and 5D4) derived from wells 1E10 and 3B12, respectively. […] The nucleic acid sequence of the cDNA sequence coding for 5D4 was identified by sequencing (SEQ ID NO: 8), an amino acid sequence determined from the result thereof was analyzed using the IMGT database (http://www.imgt.org/), and a […] region was specified (FIG. 4).\nThis fluorescence characteristic is similar to that of Cy5 dye, which is widely used in fluorescence imaging in cells. In the presence of 5D4, the fluorescence intensity of 6SiR-DNP was increased by a factor of 98 relative to the fluorescence intensity thereof in the absence of 5D4 (FIG. 6B). When fluorescence quantum yield of 6SiR-DNP in a state in which 6SiR-DNP is bound to 5D4 was measured, the fluorescence quantum yield in the presence of an excess of 5D4 was 0.57. This value for the fluorescence quantum yield is large, and is equal to or greater than that of Cy5 (quantum yield=0.2-0.4) and Cy5.5 (quantum yield=0.24), which are also highly versatile fluorescent dyes in cell labeling experiments (Q. Zheng et al., Ultra-stable organic fluorophores for single-molecule research. Chem Soc Rev 43, 1044-1056 (2014).)."}, "[2]": {"test_system": "5D4 fusion proteins in HeLa cells", "assay": "Fluorescent labeling of 5D4 fusion proteins expressed in HeLa cells (live cell imaging)", "format": "cell-based", "protocol": "HEK293T cells and HeLa cells were cultured in Dulbecco's Modified Eagle's Medium (DMEM, Wako) including 10% fetal bovine serum (FBS, SIGMA) at a carbon dioxide concentration of 5% and a temperature of 37° C.\nGene transfer into HeLa cells was performed using lipofection. For the HeLa cells under culture in a 24-well dish, 25 μL of Opti-MEM I (GIBCO) to which 0.5 μg of a plasmid had been added was added to a mixed solution of 2 μL of Lipofectamine 2000 (Invitrogen) and 25 μL of Opti-MEM I and incubated for five minutes at room temperature. This mixture was added to 500 μL of a medium 90-100% confluent with HEK293T cells and HeLa cells, and culturing was performed at 37° C. at a carbon dioxide concentration of 5%. Cell concentration was diluted to 1/10 5 to 8 hours after transfection, and cells were re-seeded on a glass dish. Cells were subjected to various imaging experiments after 24 hours had passed since transfection.\nCells were observed using an inverted microscope (IX-71, Olympus) provided with a xenon arc lamp. Images were captured using an EM-CCD camera (iXon EM+, Andor). During acquisition of a 6SiR-DNP fluorescence image, a Cy5-4040C filter set (Semrock) comprising a 608-648 nm excitation light filter, a 660 nm dichroic mirror, and a 672-712 nm absorption filter was used.\nDuring acquisition of a CFP fluorescence image, a U-MCFPHQ filter set (Olympus) comprising a 424-438 nm excitation light filter, a 450 nm dichroic mirror, and a 460-510 nm absorption filter was used. An objective lens (10×NA 0.3, 20×NA 0.75: Olympus) was used for the screening in FIG. 3, and an oil immersion objective lens (100× NA 1.4: Olympus) was used in the observations in FIGS. 5, 8, 9, and 10.\nThe HeLa cell medium was drawn up and washed with HBS buffer solution (25 mM HEPES, 125 mM NaCl, 2.5 mM KCl, 2 mM CaCl2, 1 mM MgCl2, and 25 mM D-glucose; pH 7.4), and cells were then observed in the HBS buffer solution including 6SiR-DNP at a concentration of 100 nM or 10 nM. Image capture was started 5 minutes after the 6SiR-DNP was added. Images were analyzed using ImageJ (NIH).\n5D4 expressed at an arbitrary site in a cell was labeled with 6SiR-DNP, and the ability to observe a fluorescence image using a fluorescence microscope was investigated. When cells expressing only ECFP were loaded with 6SiR-DNP (FIG. 8A), and when ECFP to which 5D4 was added was expressed in cells but the cells were not loaded with 6SiR-DNP, a fluorescence signal due to 6SiR-DNP was not observed (FIG. 8B).\nUsing a β-tubulin protein as an observation object, a 5D4 fusion protein expression construct was transgenically introduced into a Hela cell. […] An attempt was also made to observe b-actin in the cell. When a fusion protein of β-actin and 5D4 was expressed in a HeLa cell and the cell was observed, a fibrous structure characteristic of β-actin was observed (FIG. 9B). In order to visualize F-actin internal to the cell, an expression construct in which a peptide sequence (Lifeact sequence) for specifically binding to F-actin was added to the N-terminus of 5D4 was transgenically introduced into a HeLa cell. A characteristic fibrous structure was observed that was similar to the structure observed when a fusion protein of β-actin and 5D4 was expressed in the cell (FIG. 9C)."}, "[3]": {"test_system": "ECFP-5D4 (Y96F) with endoplasmic reticulum localization signal in HeLa cells", "assay": "Super-resolution imaging by single-molecule localization", "format": "cell-based", "conditions": "10 nM probe, 640 nm laser, relative to normal fluorescence microscope image", "protocol": "An ECFP-5D4 (Y96F) expression plasmid (pECFP-5D4 (Y96F)-ER) to which an endoplasmic reticulum localization signal sequence was added was introduced to HeLa cells cultured on a 96-well plate, using Lipofectamine 2000. At 20 hours after plasmid introduction, the cells were treated with trypsin/EDTA and stripped, and then re-seeded on a cover glass coated with collagen/poly-L-lysine. At 20 hours after re-seeding, the cells were washed with HBS, loaded with 10 nM 6SiR-DNP, and subjected to super-resolution imaging. A specimen was excited using a 640 nm semiconductor laser, and fluorescence intermittency images of a single molecule were continuously acquired at an exposure of 16 milliseconds by a backside-illuminated cooled EM-CCD camera (iXon, Andor Technology). A centroid position of a bright point of single-molecule fluorescence in each image was determined, and a super-resolution image was reconstructed."}}, "data": [{"smiles": "CNC(=O)c1ccc(NCCOCCOCCNC(=O)c2ccc(C(=O)[O-])c(C3=C4C=CC(=[N+](C)C)C=C4[Si](C)(C)c4cc(N(C)C)ccc43)c2)c([N+](=O)[O-])c1", "note": "[6SiR-pCOONHMeoNP, 2-(7-(dimethylamino)-3-(dimethylimino)-5,5-dimethyl-3,5-dihydrodibenzo[b,e]silin-10-yl)-4-((2-(2-(2-((4-(methylcarbamoyl)-2-nitrophenyl)amino)ethoxy)ethoxy)ethyl)carbamoyl)benzoate]", "values": [{"measurement": "fluorescence signal after photobleaching", "setting": "[1]", "value": "recovery of the fluorescence signal after photobleaching was observed"}]}, {"smiles": "CN(C)c1ccc2c(c1)[Si](C)(C)C1=CC(=[N+](C)C)C=CC1=C2c1cc(C(=O)NCCOCCOCCNc2ccc([N+](=O)[O-])cc2[N+](=O)[O-])ccc1C(=O)[O-]", "note": "[Probe 6SiR-DNP, 2-(7-(dimethylamino)-3-(dimethylimino)-5,5-dimethyl-3,5-dihydrodibenzo[b,e]silin-10-yl)-4-((2-(2-(2-((2,4-dinitrophenyl)amino)ethoxy)ethoxy)ethyl)carbamoyl)benzoate]", "values": [{"measurement": "fluorescence quantum yield", "setting": "5D4; bound to 5D4, in the presence of an excess of 5D4", "value": 0.57}, {"measurement": "fluorescence intensity increased by a factor relative to absence of 5D4", "setting": "5D4; in the presence of 5D4", "value": 98}, {"measurement": "absorption maximum", "setting": "5D4; when 5D4 was present", "value": 653, "unit": "nm"}, {"measurement": "fluorescence maximum", "setting": "5D4; when 5D4 was present", "value": 668, "unit": "nm"}, {"measurement": "fluorescent labeling at targeted intracellular sites", "setting": "[2]; ECFP-5D4 with localization peptide for nucleus, cell membrane, endoplasmic reticulum, final concentration 0.1 μM", "value": "fluorescent labeling at the targeted intracellular sites was accomplished for all the cells"}, {"measurement": "fluorescence image of STIM1-5D4 fusion protein", "setting": "[2]; HeLa cell stained with 6SiR-DNP", "value": "a structure running along the endoplasmic reticulum and microtubules was observed"}, {"measurement": "fluorescence image of tubulin-5D4 fusion protein", "setting": "[2]; HeLa cell, 6SiR-DNP present in the extracellular fluid", "value": "a fibrous structure characteristic of tubulin was observed"}, {"measurement": "6SiR-DNP fluorescence signal", "setting": "[2]; HeLa cells expressing 5D4 as fusion protein with ECFP", "value": "observed covering the entire cytoplasm"}, {"measurement": "fluorescence signal due to 6SiR-DNP", "setting": "[2]; cells expressing only ECFP loaded with 6SiR-DNP", "value": "not observed"}, {"measurement": "super-resolution image of endoplasmic reticulum", "setting": "[3]", "value": "visualized with high spatial resolution"}]}]}
